Test results reported in patent US9796733B2, “Imidazo-pyrazine derivatives useful as soluble guanylate cyclase activators” (Merck Sharp & Dohme Corp., priority 2014, dated 2017).

Molecular target: T1, sGC α1/β1 heterodimer (Homo sapiens, UniProt Q02108+Q02153)
T1 construct: expressed in transfected cells; host or cells: CHO-K1 (clone #7, CHO-K1/sGC)
T1 sequence (Q02108 1-690): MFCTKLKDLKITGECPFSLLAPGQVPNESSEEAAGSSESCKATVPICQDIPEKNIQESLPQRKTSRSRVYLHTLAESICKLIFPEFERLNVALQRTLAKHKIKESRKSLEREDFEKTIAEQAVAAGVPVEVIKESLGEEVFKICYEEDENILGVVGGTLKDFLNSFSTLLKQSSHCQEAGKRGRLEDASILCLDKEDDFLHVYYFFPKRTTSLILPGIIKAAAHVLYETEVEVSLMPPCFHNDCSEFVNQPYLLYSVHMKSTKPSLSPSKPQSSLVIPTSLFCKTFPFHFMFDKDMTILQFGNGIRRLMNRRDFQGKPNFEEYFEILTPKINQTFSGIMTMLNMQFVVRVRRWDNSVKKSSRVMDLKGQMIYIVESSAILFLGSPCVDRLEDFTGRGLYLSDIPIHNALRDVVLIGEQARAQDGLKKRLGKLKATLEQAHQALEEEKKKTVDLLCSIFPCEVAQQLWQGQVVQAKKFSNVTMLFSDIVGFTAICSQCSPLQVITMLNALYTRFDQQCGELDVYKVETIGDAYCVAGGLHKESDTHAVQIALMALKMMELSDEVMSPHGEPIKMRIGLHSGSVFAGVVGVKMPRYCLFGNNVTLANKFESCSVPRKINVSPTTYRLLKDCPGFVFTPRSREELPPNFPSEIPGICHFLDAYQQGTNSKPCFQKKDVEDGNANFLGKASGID
T1 sequence (Q02153 1-619): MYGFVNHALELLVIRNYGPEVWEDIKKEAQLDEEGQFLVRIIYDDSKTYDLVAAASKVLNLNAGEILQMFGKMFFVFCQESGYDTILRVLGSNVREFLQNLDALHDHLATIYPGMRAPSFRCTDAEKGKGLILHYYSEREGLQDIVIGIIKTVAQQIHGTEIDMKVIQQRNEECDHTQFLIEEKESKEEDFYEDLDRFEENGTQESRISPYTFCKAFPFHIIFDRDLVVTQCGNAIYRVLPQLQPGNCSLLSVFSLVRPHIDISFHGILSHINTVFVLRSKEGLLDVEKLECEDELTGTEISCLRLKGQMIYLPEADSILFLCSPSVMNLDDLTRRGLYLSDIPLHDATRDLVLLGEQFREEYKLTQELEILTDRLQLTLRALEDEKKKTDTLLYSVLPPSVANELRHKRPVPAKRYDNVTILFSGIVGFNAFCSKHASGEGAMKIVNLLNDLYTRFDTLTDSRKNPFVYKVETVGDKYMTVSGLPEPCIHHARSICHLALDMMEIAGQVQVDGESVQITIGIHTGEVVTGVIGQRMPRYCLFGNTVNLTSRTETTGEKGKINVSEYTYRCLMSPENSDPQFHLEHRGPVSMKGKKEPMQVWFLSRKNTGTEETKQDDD
Assay: Cell-based sGC functional assay (CASA assay): cGMP generation in CHO-K1/sGC cells, HTRF detection
Settings: for Emax: CHO-K1, percent activation relative to standard Compound A in CHO-K1/sGC cells, read-out: % Act.; for EC50: inflection point (IP) of cGMP generation in CHO-K1/sGC cells, 4P fit, activity expressed as percentage of Compound A
In short: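 cGMP was quantified by HTRF after 1 hr, 37° C exposure of thawed CHO-K1 cells expressing sGC α1/β1 to compound, with or without 1 μM DETA-NO. IBMX (0.5 mM) blocked cGMP breakdown, and DMSO was 2.5% final. Percent of standard Compound A's maximal cGMP was fitted (4P) for inflection point.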

Row | SMILES | Emax | EC50
1 | CC1(C)C(=O)Nc2nc(-c3cn4ccnc4c(Cc4ccc(F)cc4)n3)nc(N)c21 [Example 72, 4-amino-2-(8-(4-fluorobenzyl)imidazo[1,2-a]pyrazin-6-yl)-5,5-dimethyl-5H-pyrrolo[2,3-d]pyrimidin-6(7H)-one] | 126% | 342 nM
2 | CC1(C)C(=O)Nc2nc(-c3cn4ccnc4c(Cc4cccc(Cl)c4)n3)nc(N)c21 [Example 74, 4-amino-2-(8-(3-chlorobenzyl)imidazo[1,2-a]pyrazin-6-yl)-5,5-dimethyl-5H-pyrrolo[2,3-d]pyrimidin-6(7H)-one] | 94% | 138 nM
3 | CC1(C)C(=O)Nc2nc(-c3cn4cc(C(F)(F)F)nc4c(Cc4cccc(F)c4)n3)nc(N)c21 [Example 75, 4-amino-2-(8-(3-fluorobenzyl)-2-(trifluoromethyl)imidazo[1,2-a]pyrazin-6-yl)-5,5-dimethyl-5H-pyrrolo[2,3-d]pyrimidin-6(7H)-one] | 99% | 862 nM
4 | CC(C)C1(C)C(=O)Nc2nc(-c3cn4ccnc4c(Cc4ccccc4)n3)nc(N)c21 (stereo not drawn) [Example 80A, 4-amino-2-(8-benzylimidazo[1,2-a]pyrazin-6-yl)-5-isopropyl-5-methyl-5H-pyrrolo[2,3-d]pyrimidin-6(7H)-one] | 125% | 66 nM
5 | CC1(C2CC2)C(=O)Nc2nc(-c3cn4ccnc4c(Cc4ccccc4)n3)nc(N)c21 (stereo not drawn) [Example 82A, 4-amino-2-(8-benzylimidazo[1,2-a]pyrazin-6-yl)-5-cyclopropyl-5-methyl-5H-pyrrolo[2,3-d]pyrimidin-6(7H)-one] | 120% | 90 nM
6 | CCC1(C)C(=O)Nc2nc(-c3cn4ccnc4c(Cc4ccccc4)n3)nc(N)c21 (stereo not drawn) [Example 84A, 4-amino-2-(8-benzylimidazo[1,2-a]pyrazin-6-yl)-5-ethyl-5-methyl-5H-pyrrolo[2,3-d]pyrimidin-6(7H)-one] | 90% | 58 nM
7 | CC1(C)C(=O)Nc2nc(-c3cn4ccnc4c(CCC(F)(F)C(F)(F)F)n3)nc(N)c21 [Example 87, 4-amino-5,5-dimethyl-2-(8-(3,3,4,4,4-pentafluorobutyl)imidazo [1,2-a]pyrazin-6-yl)-5H-pyrrolo[2,3-d]pyrimidin-6(7H)-one] | 54% | 399 nM
8 | Cn1cc(C2(C)C(=O)Nc3nc(-c4cn5ccnc5c(Cc5ccc(F)cc5)n4)nc(N)c32)cn1 (stereo not drawn) [Example 88B, 4-amino-2-(8-(4-fluorobenzyl)imidazo[1,2-a]pyrazin-6-yl)-5-methyl-5-(1-methyl-1H-pyrazol-4-yl)-5H-pyrrolo[2,3-d]pyrimidin-6(7H)-one] | 79% | 224 nM

Stronger by EC50, values ahead:

Row | Emax | EC50 | SMILES
9 | 111% | 44 nM | CC1(C)C(=O)Nc2nc(-c3cn4ccnc4c(Cc4ccc(F)c(F)c4)n3)nc(N)c21 [Example 73, 4-amino-2-(8-(3,4-difluorobenzyl)imidazo[1,2-a]pyrazin-6-yl)-5,5-dimethyl-5H-pyrrolo[2,3-d]pyrimidin-6(7H)-one]
10 | 112% | 36 nM | CCC1(CC)C(=O)Nc2nc(-c3cn4ccnc4c(Cc4ccccc4)n3)nc(N)c21 [Example 79, 4-amino-2-(8-benzylimidazo[1,2-a]pyrazin-6-yl)-5,5-diethyl-5H-pyrrolo[2,3-d]pyrimidin-6(7H)-one]
11 | 141% | 4 nM | CC1(c2ccc(F)cc2)C(=O)Nc2nc(-c3cn4ccnc4c(Cc4ccccc4F)n3)nc(N)c21 (stereo not drawn) [Example 89A, 4-amino-2-(8-(2-fluorobenzyl)imidazo[1,2-a]pyrazin-6-yl)-5-(4-fluorophenyl)-5-methyl-5H-pyrrolo[2,3-d]pyrimidin-6(7H)-one]
12 | 97% | 9 nM | CC1(c2ccc(F)cc2)C(=O)Nc2nc(-c3cn4ccnc4c(Cc4ccc(F)cc4)n3)nc(N)c21 (stereo not drawn) [Example 92A, 4-amino-2-(8-(4-fluorobenzyl)imidazo[1,2-a]pyrazin-6-yl)-5-(4-fluorophenyl)-5-methyl-5H-pyrrolo[2,3-d]pyrimidin-6(7H)-one]
